This is an account of results in patent US20140275090A1, “BILE ACID RECYCLING INHIBITORS FOR TREATMENT OF PRIMARY SCLEROSING CHOLANGITIS AND INFLAMMATORY BOWEL DISEASE” (Lumena Pharmaceuticals, Inc., priority 2013, published 2014).

Series [1] is described as follows: Systemic exposure of LUM001 in patients under 18 years (study NB-00-02-014). In kind it is in vivo, human. To be noted: QD, day eight. The procedure:
LUM001 has been administered to forty patients under the age of 18 years old. […] The drug was administered once-a-day (QD) in the morning for fourteen days. […] These doses are similar to those using to treat patients with PSC-IBD or PSC.

Series [2] deals with serum bile acids. The series is described as follows: Time to onset of activity of LUM001 on postprandial serum total bile acids (SBA) in beagle dogs. It is filed as in vivo. To be noted: dog SBA model, oral, 1 hour after feeding. The procedure: LUM001 was dissolved in water at concentrations that required the administration of 0.2 ml/kg of solution. Solutions were placed into gelatin capsules, Torpac Inc., size 13 Batch 594, East Hanover N.J., and administered orally.
Male beagle dogs were obtained from Covance Research Products, Cumberland Va. or Marshall Farms USA, Inc., North Rose N.Y. A total of 20 dogs, 1 to 5 years old, 6.8 to 15.6 kg body weight, were used in these experiments. The dogs were conditioned to a 12 hour light/dark cycle and maintained on a feeding restriction of 1 hour per day access to food (Richman Standard Certified Canine Diet #5007, PMI Nutrition, Inc., St. Louis Mo.) from 7 to 8 AM. They were trained to eat a special meal promptly within 20 minutes when presented (1 can. 397 g, Evanger's 100% Beef for Dogs, Evanger's Dog and Cat Food Co., Inc., Wheeling Ill., mixed with 50 g of sharp cheddar cheese.).
SBA was measured by an enzymatic assay. SBA values are expressed as […] of total bile acids/ml of serum.
To estimate the details of this plateau, 6 dogs were given a test meal and blood samples for SBA measurement were collected at −30, 0, 30, 60, 65, 70, 80, 90, 120, 180, 240, 360, 480, 720, 1410 and 1440 minutes from the time of feeding. Any remaining food was removed 20 min after it was first presented to the dogs. […]

Series [3] concerns serum bile acids. As to the kind of experiment: Phase 1 ascending multiple oral doses of LUM001 in healthy adults: serum bile acid analysis. To be noted: 28 days. In kind it is in vivo, human. How it is done:
This Phase 1 study was a randomized, double-blind, placebo-controlled study of ascending multiple oral doses of LUM001 in healthy, adult subjects. This study was conducted at a single center. There were 13 LUM001 dosing panels: 10, 20, 60, 100, and 20 mg every morning (qAM) (2) (i.e., the regimen was tested a second time in the study), 5 mg every evening (qPM), 0.5, 1, 2.5, 5, 2.5 (2), 5 (2), and 0.5 to 5 mg qAM dose titration. Most of the dosing panels included subjects treated with matching placebo. No subject participated in more than 1 dosing panel. Subjects were randomized into the study by dosing panel, and all subjects within a dosing panel received study medication at approximately the same time each day. Safety was reviewed for each panel before subsequent panels were initiated. A total of 167 subjects were treated for 28 days, 147 with LUM001 and 20 with placebo. […]
On Day 1 of the Treatment Period, subjects who qualified for enrollment were randomized in the order in which they were admitted to the research facility. […] The safety and tolerability of LUM001 were evaluated by physical examination, ascertainment of adverse signs and symptoms, and clinical laboratory studies. […]
SBA were analyzed as part of the routine clinical analysis of the serum samples collected at each time point.

As to `CCCCC1(CCCC)CS(=O)(=O)c2ccc(N(C)C)cc2[C@@H](c2ccc(OCc3ccc(C[N+]45CCN(CC4)CC5)cc3)cc2)[C@H]1O` [LUM001], the systemic exposure result in series [1] is listed as “minimally absorbed”. The compound also yielded a threshold dose in series [2] of 0.05 mg/kg. Moreover, in series [3], the “effect on serum bile acids” value is reported as “significant reduction”.
